What was measured:
Assay type in all cases: binding
[1] = molecular target: kinases (KINOMEscan panel) (Homo sapiens, UniProt Q9P286); settings: kinase PAK5; NEW KINOMEscan
[2] = molecular target: kinases (KINOMEscan panel) (Homo sapiens, UniProt P42336, H1047L); settings: NEW KINOMEscan
[3] = molecular target: kinases (KINOMEscan panel) (Homo sapiens, UniProt P10721, T670I/V559D); settings: NEW KINOMEscan
[4] = molecular target: kinases (KINOMEscan panel) (Homo sapiens, UniProt Q99558); settings: kinase MAP3K14; NEW KINOMEscan
[5] = molecular target: kinases (KINOMEscan panel) (Homo sapiens, UniProt O60331); settings: PIP5K1C; NEW KINOMEscan
kinases (KINOMEscan panel) (Homo sapiens, UniProt O60331), sequence (O60331 whole entry): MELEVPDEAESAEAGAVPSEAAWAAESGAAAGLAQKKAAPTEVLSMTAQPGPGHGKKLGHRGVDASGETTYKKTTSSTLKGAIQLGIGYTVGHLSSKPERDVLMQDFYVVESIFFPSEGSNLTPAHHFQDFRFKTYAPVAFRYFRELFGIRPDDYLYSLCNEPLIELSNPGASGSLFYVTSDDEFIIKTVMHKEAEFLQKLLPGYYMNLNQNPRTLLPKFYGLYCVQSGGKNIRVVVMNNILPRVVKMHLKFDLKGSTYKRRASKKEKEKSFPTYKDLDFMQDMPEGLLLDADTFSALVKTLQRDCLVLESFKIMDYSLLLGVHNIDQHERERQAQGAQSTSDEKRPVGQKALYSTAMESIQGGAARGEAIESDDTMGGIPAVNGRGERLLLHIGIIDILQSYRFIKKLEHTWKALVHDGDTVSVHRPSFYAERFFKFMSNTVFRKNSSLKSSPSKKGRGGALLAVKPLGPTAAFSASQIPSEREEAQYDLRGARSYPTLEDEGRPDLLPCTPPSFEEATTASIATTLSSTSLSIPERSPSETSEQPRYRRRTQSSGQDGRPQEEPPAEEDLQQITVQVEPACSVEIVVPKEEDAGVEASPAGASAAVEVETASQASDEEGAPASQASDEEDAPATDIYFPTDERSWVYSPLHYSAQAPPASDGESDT

[6] = molecular target: T1, kinases (KINOMEscan panel) (Homo sapiens, UniProt P21709); settings: EPHA1; NEW KINOMEscan
T1 sequence (P21709 26-976): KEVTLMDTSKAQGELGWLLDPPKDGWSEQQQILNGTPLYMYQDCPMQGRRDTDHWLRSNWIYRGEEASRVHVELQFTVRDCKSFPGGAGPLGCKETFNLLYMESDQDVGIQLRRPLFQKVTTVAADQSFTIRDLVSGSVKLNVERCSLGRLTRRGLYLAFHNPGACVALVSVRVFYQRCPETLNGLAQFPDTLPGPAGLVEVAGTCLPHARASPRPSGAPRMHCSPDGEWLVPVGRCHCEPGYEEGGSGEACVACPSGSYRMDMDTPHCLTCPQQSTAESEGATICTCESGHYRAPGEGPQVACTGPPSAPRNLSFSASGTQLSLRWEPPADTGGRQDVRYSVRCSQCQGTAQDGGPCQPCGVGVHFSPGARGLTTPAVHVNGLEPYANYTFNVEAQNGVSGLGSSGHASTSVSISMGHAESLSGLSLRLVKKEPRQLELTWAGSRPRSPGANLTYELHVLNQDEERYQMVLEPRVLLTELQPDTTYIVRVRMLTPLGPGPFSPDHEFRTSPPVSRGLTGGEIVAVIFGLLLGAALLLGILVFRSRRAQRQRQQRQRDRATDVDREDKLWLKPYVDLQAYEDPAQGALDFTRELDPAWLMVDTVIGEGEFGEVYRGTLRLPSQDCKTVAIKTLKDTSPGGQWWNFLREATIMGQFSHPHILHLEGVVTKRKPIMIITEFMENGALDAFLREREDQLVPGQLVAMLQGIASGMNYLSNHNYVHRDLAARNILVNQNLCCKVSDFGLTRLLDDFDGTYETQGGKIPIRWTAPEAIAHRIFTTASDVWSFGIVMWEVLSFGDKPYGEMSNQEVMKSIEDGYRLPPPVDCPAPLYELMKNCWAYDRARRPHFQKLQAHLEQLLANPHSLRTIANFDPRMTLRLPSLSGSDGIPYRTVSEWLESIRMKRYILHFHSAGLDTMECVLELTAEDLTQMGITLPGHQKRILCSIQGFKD

[7] = molecular target: kinases (KINOMEscan panel) (Homo sapiens, UniProt Q13555); settings: CAMK2G; NEW KINOMEscan
kinases (KINOMEscan panel) (Homo sapiens, UniProt Q13555), sequence (Q13555 whole entry): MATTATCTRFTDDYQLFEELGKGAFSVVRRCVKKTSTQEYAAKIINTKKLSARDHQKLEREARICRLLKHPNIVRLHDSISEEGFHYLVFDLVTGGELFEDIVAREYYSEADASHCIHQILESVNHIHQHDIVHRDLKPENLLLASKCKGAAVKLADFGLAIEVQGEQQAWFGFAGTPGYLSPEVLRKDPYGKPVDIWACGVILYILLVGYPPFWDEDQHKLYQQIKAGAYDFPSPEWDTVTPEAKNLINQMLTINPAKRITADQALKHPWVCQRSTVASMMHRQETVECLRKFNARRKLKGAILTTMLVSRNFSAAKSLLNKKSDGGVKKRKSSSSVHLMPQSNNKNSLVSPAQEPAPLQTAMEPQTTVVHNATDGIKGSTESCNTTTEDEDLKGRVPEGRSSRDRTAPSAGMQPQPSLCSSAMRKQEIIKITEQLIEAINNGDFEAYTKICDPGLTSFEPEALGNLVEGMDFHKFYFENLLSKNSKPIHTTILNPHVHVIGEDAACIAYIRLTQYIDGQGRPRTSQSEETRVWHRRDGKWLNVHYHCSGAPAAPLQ

[8] = molecular target: kinases (KINOMEscan panel) (Homo sapiens, UniProt P22607); settings: FGFR3; NEW KINOMEscan
kinases (KINOMEscan panel) (Homo sapiens, UniProt P22607), sequence (P22607 23-806): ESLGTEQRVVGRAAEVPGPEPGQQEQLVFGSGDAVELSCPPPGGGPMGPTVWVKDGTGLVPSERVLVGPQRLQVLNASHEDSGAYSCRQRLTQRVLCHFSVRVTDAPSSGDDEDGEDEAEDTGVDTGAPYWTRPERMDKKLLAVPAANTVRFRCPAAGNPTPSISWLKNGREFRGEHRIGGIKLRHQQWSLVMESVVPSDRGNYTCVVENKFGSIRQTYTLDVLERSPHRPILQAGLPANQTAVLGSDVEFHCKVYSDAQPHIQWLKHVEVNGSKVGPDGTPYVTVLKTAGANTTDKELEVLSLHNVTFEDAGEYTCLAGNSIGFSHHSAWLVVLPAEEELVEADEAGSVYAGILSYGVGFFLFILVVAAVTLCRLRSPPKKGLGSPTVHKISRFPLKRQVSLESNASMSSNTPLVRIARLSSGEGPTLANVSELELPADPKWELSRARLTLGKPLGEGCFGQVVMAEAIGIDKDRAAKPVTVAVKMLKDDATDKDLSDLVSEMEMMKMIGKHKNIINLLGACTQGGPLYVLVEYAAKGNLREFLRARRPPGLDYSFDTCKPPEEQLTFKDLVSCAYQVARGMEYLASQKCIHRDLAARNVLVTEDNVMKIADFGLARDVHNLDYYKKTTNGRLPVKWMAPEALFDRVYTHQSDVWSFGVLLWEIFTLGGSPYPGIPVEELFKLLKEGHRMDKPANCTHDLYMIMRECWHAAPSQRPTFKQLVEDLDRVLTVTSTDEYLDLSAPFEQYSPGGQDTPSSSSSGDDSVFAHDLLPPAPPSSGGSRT

[9] = molecular target: kinases (KINOMEscan panel) (Homo sapiens, UniProt Q9HC98); settings: kinase NEK6; NEW KINOMEscan
[10] = molecular target: T2, kinases (KINOMEscan panel) (Homo sapiens, UniProt Q6P3R8); settings: kinase NEK5; NEW KINOMEscan
T2 sequence (Q6P3R8 1-708): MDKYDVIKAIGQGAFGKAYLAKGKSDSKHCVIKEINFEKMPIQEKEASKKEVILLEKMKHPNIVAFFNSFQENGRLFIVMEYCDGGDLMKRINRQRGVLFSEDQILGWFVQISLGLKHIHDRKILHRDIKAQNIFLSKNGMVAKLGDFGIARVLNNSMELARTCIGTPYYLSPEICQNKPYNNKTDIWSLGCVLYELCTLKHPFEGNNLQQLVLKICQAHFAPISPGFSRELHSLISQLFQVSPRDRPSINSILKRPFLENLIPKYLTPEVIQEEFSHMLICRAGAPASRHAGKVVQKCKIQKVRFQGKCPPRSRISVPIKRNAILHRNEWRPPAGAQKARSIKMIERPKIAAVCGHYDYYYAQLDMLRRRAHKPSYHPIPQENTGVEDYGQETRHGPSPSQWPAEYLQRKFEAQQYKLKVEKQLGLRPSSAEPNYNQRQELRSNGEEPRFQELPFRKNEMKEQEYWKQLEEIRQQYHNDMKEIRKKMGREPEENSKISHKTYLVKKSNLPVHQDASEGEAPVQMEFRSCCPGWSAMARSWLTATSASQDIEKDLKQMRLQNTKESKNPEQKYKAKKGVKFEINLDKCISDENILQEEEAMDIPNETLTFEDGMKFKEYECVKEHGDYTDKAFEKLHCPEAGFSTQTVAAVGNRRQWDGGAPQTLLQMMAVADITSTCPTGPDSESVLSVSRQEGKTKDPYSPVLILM

[11] = molecular target: kinases (KINOMEscan panel) (Homo sapiens, UniProt P10721, L576P); settings: KIT(L576P); NEW KINOMEscan
[12] = molecular target: kinases (KINOMEscan panel) (Homo sapiens, UniProt P07949, V804L); settings: NEW KINOMEscan
[13] = molecular target: kinases (KINOMEscan panel) (Homo sapiens, UniProt P29597); settings: NEW KINOMEscan; for KINOMEscan TYK2(JH1domain-catalytic): kinase TYK2(JH1domain-catalytic)
kinases (KINOMEscan panel) (Homo sapiens, UniProt P29597), sequence (P29597 whole entry): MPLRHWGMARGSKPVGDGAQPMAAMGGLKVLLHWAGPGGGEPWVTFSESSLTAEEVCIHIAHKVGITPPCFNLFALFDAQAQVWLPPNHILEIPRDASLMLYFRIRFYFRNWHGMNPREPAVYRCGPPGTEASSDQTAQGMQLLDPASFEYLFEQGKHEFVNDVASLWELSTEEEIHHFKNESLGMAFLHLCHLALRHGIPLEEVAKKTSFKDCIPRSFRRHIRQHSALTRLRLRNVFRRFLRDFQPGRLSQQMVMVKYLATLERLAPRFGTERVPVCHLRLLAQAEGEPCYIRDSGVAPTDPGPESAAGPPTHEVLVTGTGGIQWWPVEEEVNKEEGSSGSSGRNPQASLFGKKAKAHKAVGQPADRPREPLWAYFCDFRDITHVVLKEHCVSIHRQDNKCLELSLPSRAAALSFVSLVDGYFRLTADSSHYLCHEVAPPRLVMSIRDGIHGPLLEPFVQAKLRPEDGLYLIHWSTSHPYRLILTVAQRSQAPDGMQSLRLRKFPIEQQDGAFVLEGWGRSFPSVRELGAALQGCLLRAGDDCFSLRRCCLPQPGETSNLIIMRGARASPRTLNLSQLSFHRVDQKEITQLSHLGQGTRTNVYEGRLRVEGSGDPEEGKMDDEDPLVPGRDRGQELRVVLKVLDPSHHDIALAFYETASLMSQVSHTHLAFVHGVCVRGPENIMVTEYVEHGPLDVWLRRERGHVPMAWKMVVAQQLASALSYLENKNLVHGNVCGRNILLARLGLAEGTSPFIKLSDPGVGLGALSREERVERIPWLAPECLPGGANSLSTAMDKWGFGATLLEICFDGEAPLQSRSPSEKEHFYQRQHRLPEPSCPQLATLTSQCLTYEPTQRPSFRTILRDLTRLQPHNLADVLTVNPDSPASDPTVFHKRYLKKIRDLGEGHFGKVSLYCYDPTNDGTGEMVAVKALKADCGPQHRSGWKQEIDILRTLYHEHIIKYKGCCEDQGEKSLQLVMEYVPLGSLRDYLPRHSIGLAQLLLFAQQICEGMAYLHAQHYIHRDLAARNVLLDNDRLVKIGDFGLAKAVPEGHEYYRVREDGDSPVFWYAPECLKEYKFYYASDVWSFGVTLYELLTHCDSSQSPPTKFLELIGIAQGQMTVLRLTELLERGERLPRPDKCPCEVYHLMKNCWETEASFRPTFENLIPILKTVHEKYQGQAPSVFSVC

[14] = molecular target: kinases (KINOMEscan panel) (Homo sapiens, UniProt P30291); settings: WEE1; NEW KINOMEscan
kinases (KINOMEscan panel) (Homo sapiens, UniProt P30291), sequence (P30291 whole entry): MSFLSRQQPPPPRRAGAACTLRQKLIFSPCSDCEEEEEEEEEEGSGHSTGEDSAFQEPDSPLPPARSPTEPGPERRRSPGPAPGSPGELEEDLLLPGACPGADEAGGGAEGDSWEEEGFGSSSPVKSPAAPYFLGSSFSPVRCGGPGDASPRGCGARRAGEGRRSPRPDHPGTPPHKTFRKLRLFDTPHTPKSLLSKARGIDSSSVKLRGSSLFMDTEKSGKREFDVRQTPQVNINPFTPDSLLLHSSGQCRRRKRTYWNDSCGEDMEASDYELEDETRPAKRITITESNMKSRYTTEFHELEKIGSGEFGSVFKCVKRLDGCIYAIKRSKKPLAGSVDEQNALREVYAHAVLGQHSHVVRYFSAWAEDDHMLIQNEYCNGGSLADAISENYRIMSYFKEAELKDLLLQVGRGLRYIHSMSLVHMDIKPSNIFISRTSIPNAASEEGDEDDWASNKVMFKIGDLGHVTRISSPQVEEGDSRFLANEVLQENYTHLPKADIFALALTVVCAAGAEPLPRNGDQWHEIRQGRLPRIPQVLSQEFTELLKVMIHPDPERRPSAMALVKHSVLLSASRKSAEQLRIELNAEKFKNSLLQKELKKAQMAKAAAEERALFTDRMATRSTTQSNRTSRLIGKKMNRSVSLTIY

kinases (KINOMEscan panel) (Homo sapiens, UniProt P42336, H1047L), sequence (P42336 whole entry H1047L): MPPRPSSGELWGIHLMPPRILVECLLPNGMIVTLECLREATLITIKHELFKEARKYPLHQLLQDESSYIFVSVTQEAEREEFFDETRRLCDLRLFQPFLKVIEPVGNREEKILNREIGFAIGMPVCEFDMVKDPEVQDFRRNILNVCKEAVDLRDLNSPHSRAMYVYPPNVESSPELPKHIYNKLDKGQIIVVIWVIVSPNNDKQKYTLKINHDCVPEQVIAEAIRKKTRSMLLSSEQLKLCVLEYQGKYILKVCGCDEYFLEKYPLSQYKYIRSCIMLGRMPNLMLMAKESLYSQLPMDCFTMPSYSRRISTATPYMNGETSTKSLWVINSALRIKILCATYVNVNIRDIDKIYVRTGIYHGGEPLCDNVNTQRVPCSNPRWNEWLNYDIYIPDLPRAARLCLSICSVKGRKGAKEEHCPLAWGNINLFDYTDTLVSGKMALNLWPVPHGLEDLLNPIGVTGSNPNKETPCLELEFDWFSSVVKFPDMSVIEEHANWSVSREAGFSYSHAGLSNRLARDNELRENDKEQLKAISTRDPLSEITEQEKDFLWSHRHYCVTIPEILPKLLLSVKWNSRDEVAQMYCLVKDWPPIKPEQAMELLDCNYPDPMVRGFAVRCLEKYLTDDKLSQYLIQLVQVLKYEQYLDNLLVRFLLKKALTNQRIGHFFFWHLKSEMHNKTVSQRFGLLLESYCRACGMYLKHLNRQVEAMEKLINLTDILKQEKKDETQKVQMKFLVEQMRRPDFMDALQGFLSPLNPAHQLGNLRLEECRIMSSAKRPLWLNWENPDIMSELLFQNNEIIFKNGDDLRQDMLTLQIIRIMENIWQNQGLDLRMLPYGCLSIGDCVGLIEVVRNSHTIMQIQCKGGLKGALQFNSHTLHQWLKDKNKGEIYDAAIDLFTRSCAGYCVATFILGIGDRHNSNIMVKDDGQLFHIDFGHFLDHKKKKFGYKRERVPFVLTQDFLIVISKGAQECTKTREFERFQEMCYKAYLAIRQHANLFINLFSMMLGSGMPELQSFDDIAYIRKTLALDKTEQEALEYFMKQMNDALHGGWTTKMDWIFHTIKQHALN

Row | Structure (SMILES) | KINOMEscan PAK5 [1] | KINOMEscan PIK3CA(H1047L) [2] | KINOMEscan KIT(V559D,T670I) [3] | KINOMEscan MAP3K14 [4] | KINOMEscan PIP5K1C [5] | KINOMEscan EPHA1 [6] | KINOMEscan CAMK2G [7] | KINOMEscan FGFR3 [8] | KINOMEscan NEK6 [9] | KINOMEscan NEK5 [10] | KINOMEscan KIT(L576P) [11] | KINOMEscan RET(V804L) [12] | KINOMEscan TYK2(JH2domain-pseudokinase) [13] | KINOMEscan TYK2(JH1domain-catalytic) [13] | KINOMEscan WEE1 [14]
1 | Cc1cccc(-c2nc(Nc3ccc4nn(C)cc4c3)c3ccccc3n2)n1 [NK167] | 0 | 4 | 13 | 0 | 18 | 1 | 0 | 0 | 0 | 0 | 3 | 0 | 0 | 0 | 0
2 | Cc1cccc(-c2nc(N(C)c3ccc4ncsc4c3)c3ccccc3n2)n1 [NK-161] | 2 | 23 | 14 | 2 | 1 | 0 | 0 | 1 | 6 | 0 | 0 | 15 | 12 | 0 | 0
